{"source": "patent US8445509B2", "about": "“Fused heterocyclic derivatives and use thereof” (Takeda Pharmaceutical Company Limited, priority 2008, dated 2013)", "key": {"MKN-45 cells": {"system": "MKN-45 cells", "assay": "Antitumor test, MKN-45 transplanted nude mouse", "format": "in vivo, nude mouse (BALB/c nu/nu)", "conditions": "MKN-45, dose 2 mg/kg, orally, 14 consecutive days", "description": "(§1) Cancer cells were cultured in a culture medium containing 10% bovine fetal serum in an incubator at 37° C., 5% CO2. MKN-45 cells were treated with trypsin/EDTA and isolated. MKN-45 and MV-4-11 cells were washed with HBSS (HANK's Balanced Saline Solution). When MKN-45 cells were transplanted, they were adjusted with HBSS to a cell density of 1.2×10^8 cells/mL, and transplanted by subcutaneous injection of 0.05 mL of a mixed suspension (3×10^6 cells) of the cell suspension and the same amount of Matrigel into the abdomen of 6 or 7-week-old female nude mouse (BALB/c nu/nu, CLEA Japan, Inc.). When MV-4-11 cells were transplanted, they were adjusted with HESS to a cell density of 1.2×10^8 cells/mL, and transplanted by subcutaneous injection of 0.05 mL of a mixed suspension (3×10^6 cells) of the cell suspension and the same amount of Matrigel into the abdomen of 7-week-old female nude mouse (BALB/c nu/nu, CLEA Japan, Inc.). When the average tumor volume reached 100-250 mm^3, the mice were grouped, and various doses of test substance were orally administered for 14 consecutive days starting from the next day. The length of the major axis and the length of the minor axis of the tumor were measured over time and the tumor volume was calculated by tumor volume=major axis length×minor axis length×minor axis length×0.5. The ratio of an increase in the average tumor volume of the control group to an increase in the average tumor volume of the drug administration group was taken as the tumor growth rate (%) of the drug administration group. Table 5 showned MKN-45 tumor growth rate (%) and table 6 showned MV-4-11 tumor growth rate (%)."}, "MV-4-11 cells": {"system": "MV-4-11 cells", "assay": "Antitumor test, MV-4-11 transplanted nude mouse", "format": "in vivo, nude mouse (BALB/c nu/nu)", "conditions": "MV-4-11, dose 2 mg/kg, orally, 14 consecutive days", "description": "as §1"}}, "data": [{"smiles": "Cc1ccc(C(=O)Nc2ccc(Oc3ccc4nc(NC(=O)C5CC5)cn4c3)c(F)c2)c(=O)n1-c1ccc(F)cc1.Cl", "note": "[Example 32, N-[4-({2-[(cyclopropylcarbonyl)amino]imidazo[1,2-a]pyridin-6-yl}oxy)-3-fluorophenyl]-1-(4-fluorophenyl)-6-methyl-2-oxo-1,2-dihydropyridine-3-carboxamide hydrochloride]", "values": [{"measurement": "tumor growth rate (%)", "setting": "MKN-45 cells", "result": 14, "unit": "%"}, {"measurement": "tumor growth rate (%)", "setting": "MV-4-11 cells", "result": "<0", "unit": "%"}]}]}
